According to patent US20230295115A1, “SUBSTITUTED ISOQUINOLINYLMETHYL AMIDES, ANALOGUES THEREOF, AND METHODS USING SAME” (priority 2020, published 2023):
Read-outs that look alike come from different tables or passages of the source.

Tested on: HBV rcDNA
Assay: HepDE19 assay with bDNA quantitation of HBV rcDNA
Format: cell-based, hepatitis B virus (HBV)
Procedure, shortened: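 HepDE19 cells were switched to tetracycline-free medium and exposed to compound (0.5% DMSO final) for 7 days at 37° C. rcDNA was then quantified by bDNA with an HBV-specific probe set. In parallel, viability was read as ATP content (CellTiter-Glo) after 4 days on replicate plates.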

[1] = HepDE19 cells, 7 day incubation, rcDNA measured by Quantigene 2.0 bDNA assay, top concentration 25 μM, read-out: DE-19bDNA EC50
[2] = Hepatitis B virus, HepDE19, 168 h, HepDE19 cells, 7 day incubation, rcDNA measured by Quantigene 2.0 bDNA assay, top concentration 25 μM, read-out: DE-19bDNA EC50
[3] = read-out: DE-19bDNA EC50, HepDE19 cells, 7 day incubation, rcDNA measured by Quantigene 2.0 bDNA assay, top concentration 25 μM

Compound | EC50 [1] | also measured
CC(c1cn(C)c(=O)c2cc(F)c(F)cc12)N(C)C(=O)c1ccc(C(F)(F)F)c(F)c1 (single isomer, unassigned) [Compound 166, N-(1-(6,7-difluoro-2-methyl-1-oxo-1,2-dihydroisoquinolin-4-yl)ethyl)-3-fluoro-N-methyl-4-(trifluoromethyl)benzamide] | 3.32 µM | 
CC(c1c[nH]c(=O)c2cc(F)c(F)cc12)N(C)C(=O)c1ccc(F)c(C(F)F)c1 (single isomer, unassigned) [Compound 133, N-(1-(6,7-Difluoro-1-oxo-1,2-dihydroisoquinolin-4-yl)ethyl)-3-(difluoromethyl)-4-fluoro-N-methylbenzamide] | 14.7 µM | 
CC(c1c[nH]c(=O)c2cc(F)c(F)cc12)N(C)C(=O)Cc1cc2ccccc2[nH]1 (racemic) [Compound 59, N-(1-(6,7-Difluoro-1-oxo-1,2-dihydroisoquinolin-4-yl)ethyl)-2-(1H-indol-2-yl)-N-methylacetamide] |  | EC50 (Hepatitis B virus, HepDE19, 168 h, read-out: DE-19bDNA EC50 (μM), HepDE19 cells, 7 day incubation, rcDNA measured by Quantigene 2.0 bDNA assay, top concentration 25 μM): 0.91 µM
CC(c1c[nH]c(=O)c2cc(F)c(F)cc12)N(C)C(=O)c1cc2cc(F)ccn2c1 (single isomer, unassigned) [Compound 109, N-(1-(6,7-Difluoro-1-oxo-1,2-dihydroisoquinolin-4-yl)ethyl)-7-fluoro-N-methylindolizine-2-carboxamide] | 3.2 µM | 
CC(c1c[nH]c(=O)c2cc(F)c(F)cc12)N(C)C(=O)C1Cc2cc(F)ccc2N1 (stereo not shown) [Compound 61, N-(1-(6,7-Difluoro-1-oxo-1,2-dihydroisoquinolin-4-yl)ethyl)-5-fluoro-N-methylindoline-2-carboxamide] | 6.7 µM | 
CC(c1c[nH]c(=O)c2cc(F)c(F)cc12)N(C)C(=O)[C@H]1Cc2ccccc2N1 (single isomer, unassigned) [Compound 22] | 3.7 µM | 
CC(C)CN(C(=O)c1ccc(C(F)(F)F)c(F)c1)C(C)c1c[nH]c(=O)c2cc(F)c(F)cc12 (racemic) [Compound 117, N-(1-(6,7-Difluoro-1-oxo-1,2-dihydroisoquinolin-4-yl)ethyl)-3-fluoro-N-isobutyl-4-(trifluoromethyl)benzamide] |  | EC50 [2]: 0.24 µM
CC(c1c[nH]c(=O)c2cc(F)c(F)cc12)N(C)C(=O)c1ccc(F)c(C(F)F)c1 (single isomer, unassigned) [Compound 134, N-(1-(6,7-Difluoro-1-oxo-1,2-dihydroisoquinolin-4-yl)ethyl)-3-(difluoromethyl)-4-fluoro-N-methylbenzamide] | 0.06 µM | 
CC(c1c[nH]c(=O)c2c(F)c(F)ccc12)N(C)C(=O)c1cc2ccccn2c1 (single isomer, unassigned) [Compound 72, N-(1-(7,8-Difluoro-1-oxo-1,2-dihydroisoquinolin-4-yl)ethyl)-N-methylindolizine-2-carboxamide] |  | EC50 [3]: 0.14 µM
C[C@H](c1c[nH]c(=O)c2ccccc12)N(C)C(=O)[C@@H]1Cc2ccccc2N1 [Compound 160, (S)-N-Methyl-N-((R)-1-(1-oxo-1,2-dihydroisoquinolin-4-yl)ethyl)indoline-2-carboxamide] |  | EC50 [2]: 0.39 µM
CC(c1c[nH]c(=O)c2cc(F)c(F)cc12)N(C)C(=O)c1ccc(C(F)(F)F)c(F)c1 (single isomer, unassigned) [Compound 120, N-(1-(6,7-Difluoro-1-oxo-1,2-dihydroisoquinolin-4-yl)ethyl)-3-fluoro-N-methyl-4-(trifluoromethyl) benzamide] | 0.02 µM | 
CC(C)CN(C(=O)c1cc2ccccc2[nH]1)C(C)c1c[nH]c(=O)c2cc(F)c(F)cc12 (single isomer, unassigned) [Compound 3, N-(1-(6,7-Difluoro-1-oxo-1,2-dihydroisoquinolin-4-yl)ethyl)-N-isobutyl-1H-indole-2-carboxamide] | 0.67 µM | 
CC(c1c[nH]c(=O)c2cc(F)c(F)cc12)N(C)C(=O)C1Cc2cc(F)ccc2N1 (stereo not shown) [Compound 63, N-(1-(6,7-Difluoro-1-oxo-1,2-dihydroisoquinolin-4-yl)ethyl)-5-fluoro-N-methylindoline-2-carboxamide] | 5.2 µM | 
CC(c1c[nH]c(=O)c2cc(F)c(F)cc12)N(C)C(=O)c1cc2cc(Cl)ccn2c1 (single isomer, unassigned) [Compound 97, 7-Chloro-N-(1-(6,7-difluoro-1-oxo-1,2-dihydroisoquinolin-4-yl)ethyl)-N-methylindolizine-2-carboxamide] | 0.09 µM | 
CC(c1c[nH]c(=O)c2c(F)c(F)ccc12)N(C)C(=O)C1Nc2ccccc2C1(C)C (stereo not shown) [Compound 104, N-(1-(7,8-Difluoro-1-oxo-1,2-dihydroisoquinolin-4-yl)ethyl)-N,3,3-trimethylindoline-2-carboxamide] |  | EC50 [2]: ≥ 25 µM
C[C@H](c1c[nH]c(=O)c2ccccc12)N(C)C(=O)c1ccc(C(F)(F)F)c(F)c1 [Compound 145, (R)-3-Fluoro-N-methyl-N-(1-(1-oxo-1,2-dihydroisoquinolin-4-yl)ethyl)-4-(trifluoromethyl)benzamide] |  | EC50 [2]: 0.11 µM

Compound | EC50 [1] | also measured
CC(c1c[nH]c(=O)c2cc(F)c(F)cc12)N(C)C(=O)c1cc2ccc(Cl)cn2c1 (single isomer, unassigned) [Compound 110, 6-Chloro-N-(1-(6,7-difluoro-1-oxo-1,2-dihydroisoquinolin-4-yl)ethyl)-N-methylindolizine-2-carboxamide] | 0.04 µM | 
CC(c1c[nH]c(=O)c2cc(F)c(F)cc12)N(C)C(=O)[C@@H]1Cc2ccccc2CN1 (single isomer, unassigned) [Compound 19] | 0.82 µM | 
CC(c1c[nH]c(=O)c2cc(F)c(F)cc12)N(C)C(=O)C1Cc2c(F)cc(F)cc2N1 (stereo not shown) [Compound 100, N-(1-(6,7-Difluoro-1-oxo-1,2-dihydroisoquinolin-4-yl)ethyl)-4,6-difluoro-N-methylindoline-2-carboxamide] | 0.8 µM | 
C[C@H](c1c[nH]c(=O)c2ccccc12)N(C)C(=O)c1ccc(Cl)c(F)c1 [Compound 148, (R)-4-Chloro-3-fluoro-N-methyl-N-(1-(1-oxo-1,2-dihydroisoquinolin-4-yl)ethyl)benzamide] |  | EC50 [2]: 0.27 µM
CC(c1c[nH]c(=O)c2cc(F)c(F)cc12)N(C)C(=O)c1c[nH]c2ccccc12 (single isomer, unassigned) [Compound 54, N-(1-(6,7-Difluoro-1-oxo-1,2-dihydroisoquinolin-4-yl)ethyl)-N-methyl-1H-indole-3-carboxamide] | 5.1 µM | 
CC(c1c[nH]c(=O)c2cc(F)c(F)cc12)N(C)C(=O)c1cccc(C(F)F)c1 (single isomer, unassigned) [Compound 125, N-(1-(6,7-Difluoro-1-oxo-1,2-dihydroisoquinolin-4-yl)ethyl)-3-(difluoromethyl)-N-methylbenzamide] | 24.8 µM | 
CC(c1cn(C)c(=O)c2cc(F)c(F)cc12)N(C)C(=O)[C@@H]1Cc2ccccc2N1 (stereo partly drawn) [Compound 183, (2S)-N-(1-(6,7-difluoro-2-methyl-1-oxo-1,2-dihydroisoquinolin-4-yl)ethyl)-N-methylindoline-2-carboxamide] | 0.07 µM | 
CC(c1c[nH]c(=O)c2cc(F)c(F)cc12)N(C)C(=O)c1cc2cccnc2[nH]1 (single isomer, unassigned) [Compound 51, N-(1-(6,7-Difluoro-1-oxo-1,2-dihydroisoquinolin-4-yl)ethyl)-N-methyl-1H-pyrrolo[2,3-b]pyridine-2-carboxamide] |  | EC50 [3]: 0.79 µM
CC(c1c[nH]c(=O)c2cc(F)c(F)cc12)N(C)C(=O)c1cccc(C(F)F)c1 (single isomer, unassigned) [Compound 126, N-(1-(6,7-Difluoro-1-oxo-1,2-dihydroisoquinolin-4-yl)ethyl)-3-(difluoromethyl)-N-methylbenzamide] | 0.1 µM | 
CC(c1c[nH]c(=O)c2c(F)c(F)ccc12)N(C)C(=O)c1cc2c(Cl)cccn2c1 (single isomer, unassigned) [Compound 92, 8-Chloro-N-(1-(7,8-difluoro-1-oxo-1,2-dihydroisoquinolin-4-yl)ethyl)-N-methylindolizine-2-carboxamide] | 2.7 µM | 
CC(c1c[nH]c(=O)c2cc(F)c(F)cc12)N(C)C(=O)c1cc2c([nH]1)CCC2 (single isomer, unassigned) [Compound 48, N-(1-(6,7-Difluoro-1-oxo-1,2-dihydroisoquinolin-4-yl)ethyl)-N-methyl-1,4,5,6-tetrahydro cyclopenta[b]pyrrole-2-carboxamide] | 0.15 µM | 
CC(c1c[nH]c(=O)c2cc(F)c(F)cc12)N(C)C(=O)c1nc2cc(F)c(F)cc2[nH]1 (single isomer, unassigned) [Compound 50, N-(1-(6,7-Difluoro-1-oxo-1,2-dihydroisoquinolin-4-yl)ethyl)-5,6-difluoro-N-methyl-1H-benzo[d]imidazole-2-carboxamide] | 0.29 µM | 
CC(C)CN(C(=O)c1cc2ccccc2[nH]1)C(C)c1c[nH]c(=O)c2cc(F)c(F)cc12 (single isomer, unassigned) [Compound 4, N-(1-(6,7-Difluoro-1-oxo-1,2-dihydroisoquinolin-4-yl)ethyl)-N-isobutyl-1H-indole-2-carboxamide] | 0.01 µM | 
CC(c1c[nH]c(=O)c2cc(F)c(F)cc12)N(C)C(=O)C1Cc2c(F)cc(F)cc2N1 (stereo not shown) [Compound 99, N-(1-(6,7-Difluoro-1-oxo-1,2-dihydroisoquinolin-4-yl)ethyl)-4,6-difluoro-N-methylindoline-2-carboxamide] | 0.07 µM | 
CC(c1c[nH]c(=O)c2cc(F)c(F)cc12)N(C)C(=O)c1cc2cccnc2[nH]1 (single isomer, unassigned) [Compound 52, N-(1-(6,7-Difluoro-1-oxo-1,2-dihydroisoquinolin-4-yl)ethyl)-N-methyl-1H-pyrrolo[2,3-b]pyridine-2-carboxamide] |  | EC50 [3]: ≥ 25 µM
